Results from ChEMBL document CHEMBL4507324 (2021).

What was measured:
Conditions in all cases: Compound concentration 100.0 nM
[1] = target: Mitogen-activated protein kinase kinase kinase 7 (Homo sapiens) (UniProt O43318)
[2] = target: Phosphatidylinositol 3-kinase catalytic subunit type 3 (Homo sapiens) (UniProt Q8NEB9)
[3] = target: Serine/threonine-protein kinase BRSK1 (Homo sapiens) (UniProt Q8TDC3)
[4] = target: Myosin light chain kinase 2, skeletal/cardiac muscle (Homo sapiens) (UniProt Q9H1R3)
[5] = target: Serine/threonine-protein kinase pim-2 (Homo sapiens) (UniProt Q9P1W9)
[6] = target: STE20-like serine/threonine-protein kinase (Homo sapiens) (UniProt Q9H2G2)
[7] = target: Serine/threonine-protein kinase MRCK gamma (Homo sapiens) (UniProt Q6DT37)
[8] = system: Phosphatidylinositol 4,5-bisphosphate 3-kinase catalytic subunit alpha isoform (Homo sapiens), P42336 [H1047L]
[9] = target: Cyclin-dependent kinase-like 2 (Homo sapiens) (UniProt Q92772)
[10] = target: Serine/threonine-protein kinase BRSK2 (Homo sapiens) (UniProt Q8IWQ3)
[11] = target: Interleukin-1 receptor-associated kinase 3 (Homo sapiens) (UniProt Q9Y616)
[12] = system: Hepatocyte growth factor receptor (Homo sapiens), P08581 [M1250T]
[13] = target: Serine/threonine-protein kinase PAK 5 (Homo sapiens) (UniProt Q9P286)
[14] = target: Leukocyte tyrosine kinase receptor (Homo sapiens) (UniProt P29376)
[15] = target: Ribosomal protein S6 kinase alpha-2 (Homo sapiens) (UniProt Q15349)
[16] = target: Phosphatidylinositol 4-phosphate 5-kinase type-1 alpha (Homo sapiens) (UniProt Q99755)
[17] = target: Serine/threonine-protein kinase/endoribonuclease IRE1 (Homo sapiens) (UniProt O75460)
[18] = target: Calcium/calmodulin-dependent protein kinase kinase 1 (Homo sapiens) (UniProt Q8N5S9)
Sequence of Calcium/calmodulin-dependent protein kinase kinase 1 (Homo sapiens) (Q8N5S9 whole entry, looked up): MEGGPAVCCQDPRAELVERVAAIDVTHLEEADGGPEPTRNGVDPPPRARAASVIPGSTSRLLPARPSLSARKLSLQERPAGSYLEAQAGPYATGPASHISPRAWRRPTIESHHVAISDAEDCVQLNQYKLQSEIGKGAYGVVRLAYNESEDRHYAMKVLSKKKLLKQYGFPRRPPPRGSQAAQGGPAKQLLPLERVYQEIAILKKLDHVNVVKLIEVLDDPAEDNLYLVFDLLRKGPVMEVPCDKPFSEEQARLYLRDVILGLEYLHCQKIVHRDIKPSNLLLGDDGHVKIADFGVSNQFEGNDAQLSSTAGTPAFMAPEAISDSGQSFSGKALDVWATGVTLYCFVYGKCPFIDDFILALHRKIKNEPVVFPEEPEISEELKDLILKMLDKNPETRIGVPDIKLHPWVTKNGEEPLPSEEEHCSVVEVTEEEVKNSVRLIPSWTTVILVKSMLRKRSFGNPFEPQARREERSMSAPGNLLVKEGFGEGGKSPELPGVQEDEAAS

[19] = target: Serine/threonine-protein kinase 32B (Homo sapiens) (UniProt Q9NY57)
[20] = target: TGF-beta receptor type-2 (Homo sapiens) (UniProt P37173)
[21] = target: Mitogen-activated protein kinase kinase kinase 10 (Homo sapiens) (UniProt Q02779)
[22] = target: Serine/threonine-protein kinase WNK1 (Homo sapiens) (UniProt Q9H4A3)
[23] = target: Cyclin-dependent kinase 7 (Homo sapiens) (UniProt P50613)
[24] = target: Serine/threonine-protein kinase 24 (Homo sapiens) (UniProt Q9Y6E0)
[25] = target: Tyrosine-protein kinase Fgr (Homo sapiens) (UniProt P09769)
[26] = target: BDNF/NT-3 growth factors receptor (Homo sapiens) (UniProt Q16620)
[27] = target: Death-associated protein kinase 2 (Homo sapiens) (UniProt Q9UIK4)
[28] = target: Cyclin-dependent kinase 13 (Homo sapiens) (UniProt Q14004)
[29] = target: Serine/threonine-protein kinase D1 (Homo sapiens) (UniProt Q15139)
Sequence of Serine/threonine-protein kinase D1 (Homo sapiens) (Q15139 whole entry, the tested form may be a part): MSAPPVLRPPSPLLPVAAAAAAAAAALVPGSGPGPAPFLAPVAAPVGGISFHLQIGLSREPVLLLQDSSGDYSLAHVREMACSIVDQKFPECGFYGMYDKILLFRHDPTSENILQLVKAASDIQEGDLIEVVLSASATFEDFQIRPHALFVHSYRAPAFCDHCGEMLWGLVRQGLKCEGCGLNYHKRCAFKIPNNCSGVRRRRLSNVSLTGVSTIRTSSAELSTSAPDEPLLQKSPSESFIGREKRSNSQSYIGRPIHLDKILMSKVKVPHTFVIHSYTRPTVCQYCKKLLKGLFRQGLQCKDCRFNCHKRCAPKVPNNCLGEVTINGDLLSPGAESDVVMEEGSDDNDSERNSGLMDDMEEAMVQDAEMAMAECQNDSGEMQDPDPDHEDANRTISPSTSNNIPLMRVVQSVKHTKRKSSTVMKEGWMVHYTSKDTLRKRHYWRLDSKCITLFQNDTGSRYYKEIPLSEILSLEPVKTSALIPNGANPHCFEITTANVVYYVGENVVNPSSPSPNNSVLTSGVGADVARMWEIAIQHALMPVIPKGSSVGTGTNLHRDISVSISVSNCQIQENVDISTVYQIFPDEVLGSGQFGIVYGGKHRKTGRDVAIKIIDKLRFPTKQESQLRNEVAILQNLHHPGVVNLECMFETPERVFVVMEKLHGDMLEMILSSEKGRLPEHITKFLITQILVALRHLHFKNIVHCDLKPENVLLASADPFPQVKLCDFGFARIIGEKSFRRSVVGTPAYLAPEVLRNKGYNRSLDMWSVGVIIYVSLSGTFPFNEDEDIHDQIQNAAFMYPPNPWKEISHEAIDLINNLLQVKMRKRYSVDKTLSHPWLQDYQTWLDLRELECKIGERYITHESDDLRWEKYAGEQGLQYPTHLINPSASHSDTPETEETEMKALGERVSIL

[30] = target: Epithelial discoidin domain-containing receptor 1 (Homo sapiens) (UniProt Q08345)
[31] = target: Mitogen-activated protein kinase kinase kinase 2 (Homo sapiens) (UniProt Q9Y2U5)
Sequence of Mitogen-activated protein kinase kinase kinase 2 (Homo sapiens) (Q9Y2U5 whole entry): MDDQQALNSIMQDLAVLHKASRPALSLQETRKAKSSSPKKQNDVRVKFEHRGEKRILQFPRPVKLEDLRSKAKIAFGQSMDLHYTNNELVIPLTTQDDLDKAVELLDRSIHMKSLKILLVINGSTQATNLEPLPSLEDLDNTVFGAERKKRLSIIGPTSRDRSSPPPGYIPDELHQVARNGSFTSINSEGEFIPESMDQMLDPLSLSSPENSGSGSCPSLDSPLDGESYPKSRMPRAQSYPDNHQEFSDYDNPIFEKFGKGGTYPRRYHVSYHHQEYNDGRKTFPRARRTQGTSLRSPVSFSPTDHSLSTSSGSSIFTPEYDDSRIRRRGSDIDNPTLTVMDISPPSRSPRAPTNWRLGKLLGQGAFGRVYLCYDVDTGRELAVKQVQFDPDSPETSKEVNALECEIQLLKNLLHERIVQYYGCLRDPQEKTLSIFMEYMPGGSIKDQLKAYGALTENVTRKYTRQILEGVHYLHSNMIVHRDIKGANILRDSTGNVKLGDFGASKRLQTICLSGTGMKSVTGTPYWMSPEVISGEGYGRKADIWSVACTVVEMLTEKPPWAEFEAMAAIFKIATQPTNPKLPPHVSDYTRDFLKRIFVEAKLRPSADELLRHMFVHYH

[32] = target: Ribosomal protein S6 kinase alpha-1 (Homo sapiens) (UniProt Q15418)
Sequence of Ribosomal protein S6 kinase alpha-1 (Homo sapiens) (Q15418 whole entry): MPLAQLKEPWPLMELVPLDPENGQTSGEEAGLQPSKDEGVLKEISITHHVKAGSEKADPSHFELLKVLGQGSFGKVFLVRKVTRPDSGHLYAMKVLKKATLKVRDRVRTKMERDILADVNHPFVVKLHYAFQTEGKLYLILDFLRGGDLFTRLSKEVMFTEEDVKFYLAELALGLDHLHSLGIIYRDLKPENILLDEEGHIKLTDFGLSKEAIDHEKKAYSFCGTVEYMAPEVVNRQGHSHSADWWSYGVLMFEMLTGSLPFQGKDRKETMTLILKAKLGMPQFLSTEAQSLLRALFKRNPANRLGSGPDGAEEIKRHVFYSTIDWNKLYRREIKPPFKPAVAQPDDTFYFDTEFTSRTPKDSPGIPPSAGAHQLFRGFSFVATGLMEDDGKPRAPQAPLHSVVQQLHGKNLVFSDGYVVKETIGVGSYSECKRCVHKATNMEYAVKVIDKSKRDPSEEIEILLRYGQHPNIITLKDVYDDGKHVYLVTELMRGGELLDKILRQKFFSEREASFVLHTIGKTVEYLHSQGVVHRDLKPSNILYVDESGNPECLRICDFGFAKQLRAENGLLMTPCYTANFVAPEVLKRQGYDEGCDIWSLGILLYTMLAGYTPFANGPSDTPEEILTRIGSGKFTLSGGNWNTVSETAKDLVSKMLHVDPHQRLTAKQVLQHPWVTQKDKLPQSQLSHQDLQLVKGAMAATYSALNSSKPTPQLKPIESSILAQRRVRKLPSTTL

[33] = target: Hepatocyte growth factor receptor (Homo sapiens) (UniProt P08581)
[34] = target: Serine/threonine-protein kinase N2 (Homo sapiens) (UniProt Q16513)
[35] = target: MAP/microtubule affinity-regulating kinase 3 (Homo sapiens) (UniProt P27448)
[36] = target: Receptor-interacting serine/threonine-protein kinase 2 (Homo sapiens) (UniProt O43353)
[37] = system: Phosphatidylinositol 4,5-bisphosphate 3-kinase catalytic subunit alpha isoform (Homo sapiens), P42336 [E542K]
[38] = system: Mast/stem cell growth factor receptor Kit (Homo sapiens), P10721 [A829P]
Sequence of Mast/stem cell growth factor receptor Kit (Homo sapiens), P10721 [A829P] (P10721 whole entry A829P): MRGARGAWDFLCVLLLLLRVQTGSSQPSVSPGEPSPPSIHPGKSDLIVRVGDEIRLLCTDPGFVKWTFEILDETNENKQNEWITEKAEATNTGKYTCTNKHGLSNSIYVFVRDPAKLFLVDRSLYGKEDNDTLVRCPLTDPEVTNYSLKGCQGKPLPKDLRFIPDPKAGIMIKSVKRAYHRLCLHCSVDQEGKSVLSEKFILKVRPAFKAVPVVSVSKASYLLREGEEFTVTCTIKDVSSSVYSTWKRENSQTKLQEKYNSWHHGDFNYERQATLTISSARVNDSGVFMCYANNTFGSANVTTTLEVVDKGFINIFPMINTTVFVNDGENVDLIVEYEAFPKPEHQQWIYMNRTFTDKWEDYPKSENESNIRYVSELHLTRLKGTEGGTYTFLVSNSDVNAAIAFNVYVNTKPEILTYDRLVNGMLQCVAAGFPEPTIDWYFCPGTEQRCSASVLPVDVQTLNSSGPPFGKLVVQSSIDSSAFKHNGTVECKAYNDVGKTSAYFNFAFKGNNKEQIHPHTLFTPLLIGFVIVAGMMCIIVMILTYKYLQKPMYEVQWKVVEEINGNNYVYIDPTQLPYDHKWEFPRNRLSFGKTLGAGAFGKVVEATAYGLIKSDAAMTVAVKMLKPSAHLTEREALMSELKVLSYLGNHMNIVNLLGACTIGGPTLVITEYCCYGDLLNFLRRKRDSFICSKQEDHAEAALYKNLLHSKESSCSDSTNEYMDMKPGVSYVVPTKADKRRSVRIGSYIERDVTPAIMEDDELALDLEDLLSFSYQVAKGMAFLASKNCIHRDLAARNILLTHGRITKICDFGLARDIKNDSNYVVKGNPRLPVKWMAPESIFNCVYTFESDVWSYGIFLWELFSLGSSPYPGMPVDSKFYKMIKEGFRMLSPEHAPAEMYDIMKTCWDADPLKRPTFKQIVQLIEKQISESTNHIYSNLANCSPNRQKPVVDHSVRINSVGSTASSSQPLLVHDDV

[39] = target: Insulin receptor-related protein (Homo sapiens) (UniProt P14616)
Sequence of Insulin receptor-related protein (Homo sapiens) (P14616 27-742 limits assumed): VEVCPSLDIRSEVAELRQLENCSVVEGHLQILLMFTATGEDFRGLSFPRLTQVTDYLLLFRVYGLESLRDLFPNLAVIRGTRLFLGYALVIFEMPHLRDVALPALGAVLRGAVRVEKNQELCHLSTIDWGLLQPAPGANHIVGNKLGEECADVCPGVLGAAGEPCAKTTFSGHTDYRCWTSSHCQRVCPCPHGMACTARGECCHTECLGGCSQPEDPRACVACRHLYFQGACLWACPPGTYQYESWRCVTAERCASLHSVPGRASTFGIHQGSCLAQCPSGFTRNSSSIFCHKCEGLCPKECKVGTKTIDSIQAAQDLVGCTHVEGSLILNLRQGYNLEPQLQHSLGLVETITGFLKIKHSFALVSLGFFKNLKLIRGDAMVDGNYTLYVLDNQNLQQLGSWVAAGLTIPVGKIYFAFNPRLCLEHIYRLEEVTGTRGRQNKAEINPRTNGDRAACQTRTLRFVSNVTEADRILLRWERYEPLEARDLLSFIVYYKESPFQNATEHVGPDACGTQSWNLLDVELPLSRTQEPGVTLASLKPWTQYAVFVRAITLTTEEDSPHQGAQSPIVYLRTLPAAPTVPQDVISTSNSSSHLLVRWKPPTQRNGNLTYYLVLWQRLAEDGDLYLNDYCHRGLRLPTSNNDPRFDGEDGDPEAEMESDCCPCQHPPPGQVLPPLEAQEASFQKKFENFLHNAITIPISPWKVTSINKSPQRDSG
Sequence of Insulin receptor-related protein (Homo sapiens) (P14616 747-1297 limits assumed): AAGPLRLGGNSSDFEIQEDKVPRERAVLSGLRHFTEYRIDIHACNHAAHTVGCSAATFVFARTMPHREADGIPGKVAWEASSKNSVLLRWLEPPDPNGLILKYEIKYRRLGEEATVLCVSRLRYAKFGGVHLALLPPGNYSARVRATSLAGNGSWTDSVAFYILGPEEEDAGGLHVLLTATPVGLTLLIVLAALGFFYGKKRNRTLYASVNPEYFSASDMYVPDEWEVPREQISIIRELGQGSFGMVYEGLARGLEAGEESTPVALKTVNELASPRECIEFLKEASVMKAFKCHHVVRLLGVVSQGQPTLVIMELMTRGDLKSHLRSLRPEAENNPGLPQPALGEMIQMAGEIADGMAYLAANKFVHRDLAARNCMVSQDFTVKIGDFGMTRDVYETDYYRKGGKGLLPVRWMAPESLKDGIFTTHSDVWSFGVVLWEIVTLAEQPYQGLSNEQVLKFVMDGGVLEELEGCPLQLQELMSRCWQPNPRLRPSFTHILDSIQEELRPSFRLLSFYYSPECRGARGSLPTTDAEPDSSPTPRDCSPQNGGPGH

[40] = target: Mitogen-activated protein kinase kinase kinase kinase 5 (Homo sapiens) (UniProt Q9Y4K4)
[41] = target: Phosphatidylinositol 4-phosphate 5-kinase type-1 gamma (Homo sapiens) (UniProt O60331)
[42] = target: Receptor-interacting serine/threonine-protein kinase 1 (Homo sapiens) (UniProt Q13546)
[43] = target: Mitogen-activated protein kinase kinase kinase 12 (Homo sapiens) (UniProt Q12852)
[44] = system: Serine/threonine-protein kinase B-raf (Homo sapiens), P15056 [V600E]
[45] = target: Rhodopsin kinase GRK1 (Homo sapiens) (UniProt Q15835)

`CS(=O)(=O)N1CCCC(NC(=O)[C@H](CCC2CCCCC2)NC(=O)c2ccc(CNc3ncnc4c3nnn4-c3ccccc3)cc2)C1` (stereo not given in full) [SR-301] gave a residual activity [1] of 100%, a residual activity [2] of 100% and a residual activity [3] of 100%. The residual activity [4] was 90%, the residual activity [5] was 88% and the residual activity [6] was 100%. It also gave a residual activity [7] of 99%, a residual activity [8] of 76% and a residual activity [9] of 100%. The residual activity [10] was 79%, the residual activity [11] was 100% and the residual activity [12] was 87%. The residual activity [13] was 100%, the residual activity [14] was 100% and the residual activity [15] was 100%. The residual activity [16] was 100%, the residual activity [17] was 100% and the residual activity [18] was 88%. It also gave a residual activity [19] of 65%, a residual activity [20] of 93% and a residual activity [21] of 73%. It also gave a residual activity [22] of 100%, a residual activity [23] of 100% and a residual activity [24] of 100%. For the same molecule, the residual activity [25] was 88%, the residual activity [26] was 100% and the residual activity [27] was 90%. For the same molecule, the residual activity [28] was 100%, the residual activity [29] was 91% and the residual activity [30] was 89%. For the same molecule, the residual activity [31] was 100%, the residual activity [32] was 100% and the residual activity [33] was 68%. The residual activity [34] was 95%, the residual activity [35] was 100% and the residual activity [36] was 59%. The residual activity [37] was 64%, the residual activity [38] was 100% and the residual activity [39] was 100%. It also gave a residual activity [40] of 76%, a residual activity [41] of 85% and a residual activity [42] of 94%. The residual activity [43] was 100%, the residual activity [44] was 100% and the residual activity [45] was 94%.
For `CS(=O)(=O)N1CCCC(NC(=O)[C@H](CCC2CCCCC2)NC(=O)c2ccc(CNC(=O)c3cnc4ccccn34)cc2)C1` (stereo not given in full) [SR-302], the residual activity [1] was 94%, the residual activity [2] was 100% and the residual activity [3] was 72%. It also gave a residual activity [4] of 90%, a residual activity [5] of 100% and a residual activity [6] of 99%. It also gave a residual activity [7] of 98%, a residual activity [8] of 100% and a residual activity [9] of 85%. For the same molecule, the residual activity [10] was 100%, the residual activity [11] was 65% and the residual activity [12] was 69%. For the same molecule, the residual activity [13] was 97%, the residual activity [14] was 100% and the residual activity [15] was 94%. The residual activity [16] was 89%, the residual activity [17] was 100% and the residual activity [18] was 84%. It also gave a residual activity [19] of 93%, a residual activity [20] of 91% and a residual activity [21] of 100%. For the same molecule, the residual activity [22] was 99%, the residual activity [23] was 100% and the residual activity [24] was 95%. It also gave a residual activity [25] of 87%, a residual activity [26] of 87% and a residual activity [27] of 94%. The residual activity [28] was 61%, the residual activity [29] was 93% and the residual activity [30] was 0.1%. It also gave a residual activity [31] of 100%, a residual activity [32] of 92% and a residual activity [33] of 62%. It also gave a residual activity [34] of 100%, a residual activity [35] of 74% and a residual activity [36] of 30%. For the same molecule, the residual activity [37] was 78%, the residual activity [38] was 66% and the residual activity [39] was 100%. For the same molecule, the residual activity [40] was 100%, the residual activity [41] was 100% and the residual activity [42] was 88%. The residual activity [43] was 100%, the residual activity [44] was 51% and the residual activity [45] was 100%.
